From US20110206779A1, “GASTRIC ULCER THERAPEUTIC AGENT” (priority 2010, published 2011)

Legend:
[1] = Measurement of adsorption amount of naphthol yellow S; type: physicochemical; conditions: 1.0 g powder in 500 mL NYS aqueous solution 100 ppm, 30° C., 1 hour
Method: [Measurement of Adsorption Amount of Naphthol Yellow S]
1.0 g of a powder sample was added to 500 mL of an aqueous solution of naphthol yellow S (NYS) (concentration 100 ppm). The mixture was stirred at 30° C. for 1 hour and then filtered to obtain a filtrate. The concentration of NYS in the filtrate was measured with a spectrophotometer and the adsorption amount of the sample was obtained.

[2] = Antacid power, measured according to the pharmacopoeia of Japan; type: physicochemical
[3] = tested on: water immersion restraint stress ulcer; experiment: Influence on rat water immersion restraint stress ulcer; type: in vivo, Wister rats; conditions: oral, 30 minutes before stress, 7 hours stress; for Length of gastric mucosa impairment: control 14.7 mm
Text: [Influence on Rat Water Immersion Restraint Stress Ulcer]
The powders obtained in Examples 1, 2 and 3, a mixed powder containing the powder obtained in Example 2 and basic zinc carbonate (Zn=58%), the powders obtained in Comparative Examples 1 and 2, lansoprazole as a proton pump inhibitor and sucralfate, which is most highly evaluated as a gastric mucosa protective agent, were used as test specimens. These test specimens were examined for effect on water immersion restraint stress ulcer, which is an acute ulcer model.
Eight Wister rats as a group were preliminarily reared for a few days. The rats were fasted for 24 hours. Then, the rats were placed in a stress cage according to the method of Takagi et al. (Jap, J, Pharacol, 18:9, 1968). The rats were immersed up to xiphoid process parts in a water tank having a temperature of 23° C. and the rats were subjected to stress for 7 hours. Then, their stomachs were taken out under ether anesthesia. About 12 mL of 2% formalin physiological saline solution was injected into each stomach, to fix the stomach. Then, each stomach was cut out along a curvatura ventriculi major side. The length (mm) of mucosa ulcer at a glandular stomach portion was measured.
As to oral administration of the test specimens, 5 mL/kg (rat weight) of a liquid containing a test specimen was administered 30 minutes before the load of the stress. In Control, the same amount of water was administered.

Compound | NYS adsorption amount [1] [mg/g] | Antacid power [2] [mL/g] | Inhibition rate ([3]; dosage 40 mg/kg) [%] | Length of gastric mucosa impairment ([3]; dosage 40 mg/kg) [mm] | Inhibition rate ([3]; dosage 500 mg/kg) [%] | Length of gastric mucosa impairment ([3]; dosage 500 mg/kg) [mm]
Cc1c(OCC(F)(F)F)ccnc1C[S+]([O-])c1nc2ccccc2[nH]1 (centres unmarked) [Lansoprazole, lansoprazole] | 0 | 0 | 78 | 3.2 | – | –
sucralfate | 0.60 | 168 | – | – | 71 | 4.3
